Measurements reported in patent US6015790A, “Methods and compositions for treating rheumatoid arthritis” (BASF Aktiengesellschaft, priority 1997, dated 2000).

Key:
[1] = test system: National Cancer Institute's P388 lymphocytic leukemia cell line; details: cited from earlier work
[2] = test system: collagen induced arthritis in DBA-1 mice; experiment: Collagen induced arthritis, prophylactic model (mean arthritic score); type: in vivo; details: 5 mg/kg/day intraperitoneally, day 26 to day 35 post immunization
[3] = test system: collagen induced arthritis in DBA-1 mice; experiment: Collagen induced arthritis, therapeutic model (mean arthritic score, histopathology); type: in vivo; details: 5 mg/kg/day intraperitoneally, 21 days from day 48, necropsy day 71, vs vehicle

Dolastatin-15
inhibition of cell growth [1]: markedly inhibits the growth

C[C@@H]1C[C@H]2[C@@H]3CCC4=CC(=O)C=C[C@]4(C)[C@@]3(F)[C@@H](O)C[C@]2(C)[C@@]1(O)C(=O)CO [dexamethasone]
signs of rheumatoid arthritis after end of treatment (mean arthritic score) [2]: exhibited signs of rheumatoid arthritis immediately following the end of treatment
cartilage involvement (cartilage damage, histopathology, scale 0-3) [3]: significantly suppressed
synovitis (synovial inflammation, histopathology, scale 0-3) [3]: significantly suppressed
